Here are results for 13 compounds from US11168088B2 (SHANGHAI HAIYAN PHARMACEUTICAL TECHNOLOGY CO., LTD., priority 2016, dated 2021).

Type in all cases: biochemical
Assay [1] deals with CDK6 (Homo sapiens (Human), UniProt Q00534). As to the kind of experiment: In vitro kinase test (LANCE Ultra), CDK6. From the text:
(§1) Recombinant CDK1/CCNB1 and CDK9/CCNT were purchased from BPS; CDK2/CCNA1, CDK4/CCND1 and CDK6/CCND1 were purchased from Invitrogen; CDK4/CycD3 and CDK6/CycD3 were purchased from Carna. Adenosine triphosphate (ATP) was purchased from Life tech. Substrate Ulight-4EBP1 and the corresponding detection antibody were purchased from Perkinelmer. The detection system was Perkinelmer's LANCE Ultra system.
(§2) In the kinase test, a compound to be tested was 1:3 diluted for 8 gradient points, added into a reaction plate, and then added an appropriate amount of recoinbinase. A buffer [50 mM HEPES […], 10 mM MgCl2, 3 mM MnCl2, 1 mM EGTA, 0.01% Tween-20, 1 mM TCEP] containing ATP/Ulight-4EBP1 premix with predetermined concentration was subsequently added, and the kinase reaction was started at room temperature. A test solution pre-mixed with 10 mM EDTA and detection antibody was added after a suitable reaction time, and then the fluorescence value was read on Tecan infinite pro after reacting for 1 hour at room temperature. The IC50 was calculated using a four-factor model fitting in a XLfit software.

The target of assay [2] is CDK2 (Homo sapiens (Human), UniProt P24941). As to the kind of experiment: In vitro kinase test (LANCE Ultra), CDK2.
From the text: as §1, §2

For assay [3], the target named is CDK4 (Homo sapiens (Human), UniProt P11802). As to the kind of experiment: In vitro kinase test (LANCE Ultra), CDK4.
CDK4, sequence (P11802 whole entry, looked up): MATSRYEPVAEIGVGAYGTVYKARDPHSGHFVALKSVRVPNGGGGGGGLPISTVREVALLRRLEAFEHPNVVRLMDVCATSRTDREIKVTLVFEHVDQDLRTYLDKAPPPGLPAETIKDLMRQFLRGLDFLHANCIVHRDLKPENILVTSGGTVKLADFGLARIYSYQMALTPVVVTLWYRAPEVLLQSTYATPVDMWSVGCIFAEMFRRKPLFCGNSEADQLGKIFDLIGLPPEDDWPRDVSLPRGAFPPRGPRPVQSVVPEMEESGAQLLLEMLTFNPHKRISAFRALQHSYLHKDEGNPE
CDK4, sequence (P24385 whole entry partner, looked up): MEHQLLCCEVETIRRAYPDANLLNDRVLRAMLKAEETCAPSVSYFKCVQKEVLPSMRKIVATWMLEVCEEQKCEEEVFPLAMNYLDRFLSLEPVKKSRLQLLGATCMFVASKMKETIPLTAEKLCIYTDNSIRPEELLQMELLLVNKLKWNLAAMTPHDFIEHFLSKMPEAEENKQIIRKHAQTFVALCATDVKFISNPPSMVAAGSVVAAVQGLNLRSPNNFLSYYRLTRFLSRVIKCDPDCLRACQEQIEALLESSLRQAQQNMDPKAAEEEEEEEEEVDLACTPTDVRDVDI
From the text: as §1, §2

Assay [4] addresses CDK1 (Homo sapiens (Human), UniProt P06493). As to the kind of experiment: In vitro kinase test (LANCE Ultra), CDK1.
From the text: as §1, §2

CDK1, sequence (P06493 whole entry): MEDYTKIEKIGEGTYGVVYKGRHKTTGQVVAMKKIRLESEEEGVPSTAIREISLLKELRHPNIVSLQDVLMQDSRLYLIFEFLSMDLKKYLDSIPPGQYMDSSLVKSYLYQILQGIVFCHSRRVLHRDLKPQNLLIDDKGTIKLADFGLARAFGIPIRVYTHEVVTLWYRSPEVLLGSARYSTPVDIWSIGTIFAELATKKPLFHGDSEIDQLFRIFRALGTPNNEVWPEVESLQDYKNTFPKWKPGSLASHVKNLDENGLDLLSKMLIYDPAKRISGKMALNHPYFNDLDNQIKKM
CDK1, sequence (P14635 whole entry partner): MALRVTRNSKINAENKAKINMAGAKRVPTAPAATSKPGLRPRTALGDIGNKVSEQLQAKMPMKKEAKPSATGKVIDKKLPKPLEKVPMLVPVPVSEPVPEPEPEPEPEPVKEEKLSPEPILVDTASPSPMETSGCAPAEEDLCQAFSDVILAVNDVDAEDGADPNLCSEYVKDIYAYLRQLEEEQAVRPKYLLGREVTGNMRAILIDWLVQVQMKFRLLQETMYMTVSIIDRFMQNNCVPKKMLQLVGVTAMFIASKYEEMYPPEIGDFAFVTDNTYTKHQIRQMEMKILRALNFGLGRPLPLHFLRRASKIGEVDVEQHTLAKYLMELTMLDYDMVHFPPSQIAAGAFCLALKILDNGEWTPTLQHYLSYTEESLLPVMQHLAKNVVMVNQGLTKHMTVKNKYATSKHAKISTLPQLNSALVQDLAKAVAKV
CDK6, sequence (Q00534 whole entry, looked up): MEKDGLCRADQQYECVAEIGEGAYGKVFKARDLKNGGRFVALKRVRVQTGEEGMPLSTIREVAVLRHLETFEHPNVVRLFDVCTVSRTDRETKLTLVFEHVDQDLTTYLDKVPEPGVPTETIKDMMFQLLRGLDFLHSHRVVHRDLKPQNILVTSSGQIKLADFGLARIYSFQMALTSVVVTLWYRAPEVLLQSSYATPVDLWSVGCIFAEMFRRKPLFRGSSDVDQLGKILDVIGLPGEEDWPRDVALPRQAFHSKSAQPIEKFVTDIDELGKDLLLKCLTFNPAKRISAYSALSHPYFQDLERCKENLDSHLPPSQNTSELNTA
CDK6, sequence (P24385 whole entry partner, looked up): as the sequence (P24385 whole entry partner, looked up) above

Consider `CCc1nc2c(n1CC)-c1nc(Nc3ccc(N4CCNCC4)cn3)ncc1C2` [Compound P-21], for which the IC50 amounted to 706 nM in assay [1], 5050 nM in assay [2], 35 nM in assay [3] and 6370 nM in assay [4].
On to `CC(C)c1c2c(nn1C)C(C)c1cnc(Nc3ccc(N4CCNCC4)cn3)nc1-2` (stereo not shown) [Compound P-47], for which the IC50 amounted to 46 nM in assay [1], 510 nM in assay [2], 5 nM in assay [3] and 706 nM in assay [4].
In the same order, the values of `CC(C)c1c2c(nn1C)Cc1cnc(Nc3ccc(N4CCNCC4)cn3)nc1-2` [Compound P-8] are 161 nM, 8250 nM, 10 nM and above 10000 nM.
Take `CCn1nc2c(c1C(C)C)-c1nc(Nc3ccc(N4CCNCC4)cn3)ncc1CC2(C)C` [Compound P-46]: the IC50 was 35 nM in assay [1], 469 nM in assay [2], 8 nM in assay [3] and 818 nM in assay [4].
In the same order, the values of `CCc1nc2c(n1C(C)C)-c1nc(Nc3ccc(N4CCNCC4)cn3)ncc1CC2` [Compound P-23, 2-ethyl-1-isopropyl-N-(5-(piperazin-1-yl)pyridin-2-yl)-4,5-dihydro-1H-imidazo[4,5-H]quinazolin-8-amine] are 85 nM, 1300 nM, 6 nM and 2780 nM.
In the same order, the values of `c1cc(Nc2ncc3c(n2)-c2c(cnn2C2CCCC2)CC3)ncc1N1CCNCC1` [Compound P-9, 1-cyclopentyl-N-(5-(piperazin-1-yl)pyridin-2-yl)-4,5-dihydro-1H-pyrazolo[4,3H]quinazolin-8-amine] are 40 nM, 1440 nM, 8 nM and 5170 nM.
In the same order, the values of `CC(C)c1c2c(nn1C)CCc1cnc(Nc3ccc(N4CCNCC4)cn3)nc1-2` [Compound P-14, 9-isopropyl-8-methyl-N-(5-(piperazin-1-yl)pyridin-2-yl)-6,8-dihydro-5H-pyrazolo[3,4-H]quinazolin-2-amine] are 20 nM, 523 nM, 5 nM and 1020 nM.
For the compound `CC(C)c1c2c(nn1C)C(C)(C)c1cnc(Nc3ccc(N4CCNCC4)cn3)nc1-2` [Compound P-42], the 50% inhibitory concentration (IC50) came to 222 nM in assay [1], 1290 nM in assay [2], 17 nM in assay [3] and 4320 nM in assay [4].
In the same order, the values of `CCc1nc2c(n1C(C)C)-c1nc(Nc3ccc(CN4CCN(CC)CC4)cn3)ncc1CC2` [Compound P-3] are 59 nM, 1150 nM, 6 nM and 912 nM.
In the case of `Cc1c2c(nn1C)CCc1cnc(Nc3ccc(N4CCN(C)CC4)cc3)nc1-2` [Compound D1, reference compound], the “inhibitory activity against CDK6 (in words)” value in assay [1] was “strong inhibitory activity”. Further, the “inhibitory activity against CDK2 (in words)” value in assay [2] is given as “strong inhibitory activity”. In addition, in assay [3], the “inhibitory activity against CDK4 (in words)” value is on record as “strong inhibitory activity”. In addition, the “inhibitory activity against CDK1 (in words)” value in assay [4] was “strong inhibitory activity”.
For `CCN1CCN(c2ccc(Nc3ncc4c(n3)-c3c(nn(C)c3C(C)C)C4)nc2)CC1` [Compound P-7], the IC50 worked out at 42 nM in assay [1], 9850 nM in assay [2], 6 nM in assay [3] and 8530 nM in assay [4].
In the same order, the values of `CC(C)c1c2c3nc(Nc4ccc(N5CCNCC5)cn4)ncc3n(C)c2nn1C` [Compound P-58] are 263 nM, 5980 nM, 10 nM and above 10000 nM.
`Cc1nc2c(n1C1CCCC1)-c1nc(Nc3ccc(N4CCNCC4)cn3)ncc1C2` [Compound P-13]: the IC50 in assay [1] amounted to 43 nM; in assay [2] it was 8320 nM; in assay [3], 23 nM; in assay [4], 5650 nM.
